pIC50: −log10 of the molar value. Structures can show the parent of a compound that is named as a salt.
Assays:
BRD4-BD1 = BRD4-BD1 (Homo sapiens (Human), UniProt O60885); assay: BRD4 AlphaScreen assay, BRD4-BD1; assay type: binding; conditions: biotin-labeled tetra-acetylated histone H4 peptide, 75 min, room temperature, read-out: BRD4 BD-1 enzyme IC50
How it was run: (§1)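 Displacement of 50 nM biotinylated tetra-acetylated H4 peptide (H4Ac4) from BRD4-BD1 (3.8 nM) or BRD4-BD2 (20 nM) in HEPES pH 7.4, 100 mM NaCl, CHAPS, BSA; 75 min at room temperature. Streptavidin donor/GSH acceptor beads were added for a further 75 min in the dark; IC50 from percent control activity versus log concentration.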

BRD4-BD2 = BRD4-BD2 (Homo sapiens (Human), UniProt O60885); assay: BRD4 AlphaScreen assay, BRD4-BD2; assay type: binding; conditions: biotin-labeled tetra-acetylated histone H4 peptide, 75 min, room temperature, read-out: BRD4 BD-2 enzyme IC50
How it was run: as §1

| Compound | pIC50 (BRD4-BD1) | pIC50 (BRD4-BD2) |
| --- | --- | --- |
| Cc1cc2c(cc(Nc3ccn(C)n3)c3nnc(C)n32)n1Cc1ccccc1 [Example 202, 6-Benzyl-1,7-dimethyl-N-(1-methyl-1H-pyrazol-3-yl)-6H-pyrrolo[2,3-e][1,2,4]triazolo[4,3-a]pyridin-4-amine tris(trifluoroacetate) Salt] | ≥ 7.00 | ≥ 7.00 |
| Cc1cc2c(cc(NC3CCN(C(=O)OC(C)(C)C)CC3)c3nnc(C)n32)n1Cc1ccccc1 [Example 214, tert-Butyl 4-[(6-benzyl-1,7-dimethyl-6H-pyrrolo[2,3-e][1,2,4]triazolo[4,3-a]pyridin-4-yl)amino]piperidine-1-carboxylate] | 6.00 to 7.00 | ≥ 7.00 |
| Cc1cc2c(cc(NC(N)=O)c3nnc(C)n32)n1Cc1cccc(Cl)c1 [Example 231, 1-(6-(3-Chlorobenzyl)-1,7-dimethyl-6H-pyrrolo[2,3-e][1,2,4]triazolo[4,3-a]pyridin-4-yl)urea] | ≥ 7.00 | ≥ 7.00 |
| Cc1cc2c(cc(NC3CCCCC3)c3nnc(C)n32)n1Cc1ccccc1 [Example 232, 6-Benzyl-N-cyclohexyl-1,7-dimethyl-6H-pyrrolo[2,3-e][1,2,4]triazolo[4,3-a]pyridin-4-amine] | 6.00 to 7.00 | 6.00 to 7.00 |
| Cc1cc2c(cc(NC(N)=O)c3nnc(C)n32)n1Cc1cc(F)cc(F)c1 [Example 233, 1-(6-(3,5-Difluorobenzyl)-1,7-dimethyl-6H-pyrrolo[2,3-e][1,2,4]triazolo[4,3-a]pyridin-4-yl)urea] | ≥ 7.00 | ≥ 7.00 |
| Cc1cc2c(cc(NC(N)=O)c3nnc(C)n32)n1Cc1ccc(F)c(F)c1 [Example 234, 1-(6-(3,4-Difluorobenzyl)-1,7-dimethyl-6H-pyrrolo[2,3-e][1,2,4]triazolo[4,3-a]pyridin-4-yl)urea] | ≥ 7.00 | ≥ 7.00 |
| Cc1cc2c(cc(NC(N)=O)c3nnc(C)n32)n1Cc1cccc(F)c1 [Example 235, 1-(6-(3-Fluorobenzyl)-1,7-dimethyl-6H-pyrrolo[2,3-e][1,2,4]triazolo[4,3-a]pyridin-4-yl)urea] | ≥ 7.00 | ≥ 7.00 |
| Cc1cc2c(cc(NC(N)=O)c3nnc(C)n32)n1Cc1ccc(F)cc1F [Example 236, 1-(6-(2,4-Difluorobenzyl)-1,7-dimethyl-6H-pyrrolo[2,3-e][1,2,4]triazolo[4,3-a]pyridin-4-yl)urea] | ≥ 7.00 | ≥ 7.00 |
| Cc1cc2c(cc(NC(N)=O)c3nnc(C)n32)n1Cc1cccc(F)c1F [Example 237, 1-(6-(2,3-Difluorobenzyl)-1,7-dimethyl-6H-pyrrolo[2,3-e][1,2,4]triazolo[4,3-a]pyridin-4-yl)urea] | ≥ 7.00 | ≥ 7.00 |
| Cc1cc2c(cc(NC(N)=O)c3nnc(C)n32)n1Cc1ccccc1F [Example 238, 1-(6-(2-Fluorobenzyl)-1,7-dimethyl-6H-pyrrolo[2,3-e][1,2,4]triazolo[4,3-a]pyridin-4-yl)urea] | ≥ 7.00 | ≥ 7.00 |
| Cc1cc2c(cc(NC(N)=O)c3nnc(C)n32)n1Cc1ccc(F)cc1 [Example 239, 1-(6-(4-Fluorobenzyl)-1,7-dimethyl-6H-pyrrolo[2,3-e][1,2,4]triazolo[4,3-a]pyridin-4-yl)urea] | ≥ 7.00 | ≥ 7.00 |
| Cc1cc2c(cc(Nc3ccccn3)c3nnc(C)n32)n1Cc1ccccc1 [Example 240, 6-benzyl-1,7-Dimethyl-N-(pyridin-2-yl)-6H-pyrrolo[2,3-e][1,2,4]triazolo[4,3-a]pyridin-4-amine] | ≥ 7.00 | ≥ 7.00 |
| Cc1cc2c(cc(NCC3CCC3)c3nnc(C)n32)n1Cc1ccccc1 [Example 241, 6-Benzyl-N-(cyclobutylmethyl)-1,7-dimethyl-6H-pyrrolo[2,3-e][1,2,4]triazolo[4,3-a]pyridin-4-amine] | 6.00 to 7.00 | ≥ 7.00 |
| Cc1cc2c(cc(NCC3CCN(C(=O)OC(C)(C)C)CC3)c3nnc(C)n32)n1Cc1ccccc1 [Example 242, tert-Butyl 4-((6-benzyl-1,7-dimethyl-6H-pyrrolo[2,3-e][1,2,4]triazolo[4,3-a]pyridin-4-ylamino)methyl)piperidine-1-carboxylate] | 6.00 to 7.00 | ≥ 7.00 |
| Cc1cc2c(cc(NCC3CN(C(=O)OC(C)(C)C)C3)c3nnc(C)n32)n1Cc1ccccc1 [Example 243, tert-Butyl 3-((6-benzyl-1,7-dimethyl-6H-pyrrolo[2,3-e][1,2,4]triazolo[4,3-a]pyridin-4-ylamino)methyl)azetidine-1-carboxylate] | 6.00 to 7.00 | ≥ 7.00 |
| Cc1cc2c(cc(NC3CN(C(=O)OC(C)(C)C)C3)c3nnc(C)n32)n1Cc1ccccc1 [Example 244, tert-Butyl 3-(6-benzyl-1,7-dimethyl-6H-pyrrolo[2,3-e][1,2,4]triazolo[4,3-a]pyridin-4-ylamino)azetidine-1-carboxylate] | ≥ 7.00 | ≥ 7.00 |

The remaining lines, values ahead:

| pIC50 (BRD4-BD1) | pIC50 (BRD4-BD2) | Compound |
| --- | --- | --- |
| ≥ 7.00 | ≥ 7.00 | Cc1cc2c(cc(O)c3nnc(C)n32)n1Cc1ccccc1 [Example 204, 6-Benzyl-1,7-dimethyl-6H-pyrrolo[2,3-e][1,2,4]triazolo[4,3-a]pyridin-4-ol Trifluoroacetate Salt] |
| ≥ 7.00 | ≥ 7.00 | Cc1cc2c(cc(NC3CCNCC3)c3nnc(C)n32)n1Cc1ccccc1 [Example 206, 6-Benzyl-1,7-dimethyl-N-piperidin-4-yl-6H-pyrrolo[2,3-e][1,2,4]triazolo[4,3-a]pyridin-4-amine] |
| ≥ 7.00 | ≥ 7.00 | Cc1cc2c(cc(NC3CCN(C)CC3)c3nnc(C)n32)n1Cc1ccccc1 [Example 207, 6-Benzyl-1,7-dimethyl-N-(1-methylpiperidin-4-yl)-6H-pyrrolo[2,3-e][1,2,4]triazolo[4,3-a]pyridin-4-amine] |
| ≥ 7.00 | ≥ 7.00 | Cc1cc2c(cc(NCCN3CCOCC3)c3nnc(C)n32)n1Cc1ccccc1 [Example 208, 6-Benzyl-1,7-dimethyl-N-(2-morpholin-4-ylethyl)-6H-pyrrolo[2,3-e][1,2,4]triazolo[4,3-a]pyridin-4-amine] |
| ≥ 7.00 | ≥ 7.00 | COCCNc1cc2c(cc(C)n2Cc2ccccc2)n2c(C)nnc12 [Example 209, 6-Benzyl-N-(2-methoxyethyl)-1,7-dimethyl-6H-pyrrolo[2,3-e][1,2,4]triazolo[4,3-a]pyridin-4-amine] |
| ≥ 7.00 | ≥ 7.00 | Cc1cc2c(cc(NCCO)c3nnc(C)n32)n1Cc1ccccc1 [Example 210, 2-[(6-Benzyl-1,7-dimethyl-6H-pyrrolo[2,3-e][1,2,4]triazolo[4,3-a]pyridin-4-yl)amino]ethanol] |
| ≥ 7.00 | ≥ 7.00 | Cc1cc2c(cc(NC3CCN(S(C)(=O)=O)CC3)c3nnc(C)n32)n1Cc1ccccc1 [Example 211, 6-Benzyl-1,7-dimethyl-N-[1-(methylsulfonyl)piperidin-4-yl]-6H-pyrrolo[2,3-e][1,2,4]triazolo[4,3-a]pyridin-4-amine] |
| ≥ 7.00 | ≥ 7.00 | CCN1CCC(Nc2cc3c(cc(C)n3Cc3ccccc3)n3c(C)nnc23)CC1 [Example 212, 6-Benzyl-N-(1-ethylpiperidin-4-yl)-1,7-dimethyl-6H-pyrrolo[2,3-e][1,2,4]triazolo[4,3-a]pyridin-4-amine] |
| ≥ 7.00 | ≥ 7.00 | Cc1cc2c(cc(N[C@H]3CC[C@H](N)CC3)c3nnc(C)n32)n1Cc1ccccc1 [Example 217, trans-N-(6-Benzyl-1,7-dimethyl-6H-pyrrolo[2,3-e][1,2,4]triazolo[4,3-a]pyridin-4-yl)cyclohexane-1,4-diamine] |
| ≥ 7.00 | ≥ 7.00 | Cc1cc2c(cc(N[C@H]3CC[C@@H](N)CC3)c3nnc(C)n32)n1Cc1ccccc1 [Example 218, cis-N-(6-Benzyl-1,7-dimethyl-6H-pyrrolo[2,3-e][1,2,4]triazolo[4,3-a]pyridin-4-yl)cyclohexane-1,4-diamine] |
| ≥ 7.00 | ≥ 7.00 | CN[C@H]1CC[C@H](Nc2cc3c(cc(C)n3Cc3ccccc3)n3c(C)nnc23)CC1 [Example 219, trans-N-(6-Benzyl-1,7-dimethyl-6H-pyrrolo[2,3-e][1,2,4]triazolo[4,3-a]pyridin-4-yl)-N′-methylcyclohexane-1,4-diamine] |
| ≥ 7.00 | ≥ 7.00 | CN[C@H]1CC[C@@H](Nc2cc3c(cc(C)n3Cc3ccccc3)n3c(C)nnc23)CC1 [Example 221, cis-N-(6-Benzyl-1,7-dimethyl-6H-pyrrolo[2,3-e][1,2,4]triazolo[4,3-a]pyridin-4-yl)-N′-methylcyclohexane-1,4-diamine] |
| ≥ 7.00 | ≥ 7.00 | Cc1nnc2ccc3c(cc(C#N)n3Cc3ccccc3)n12 [Example 227, 6-Benzyl-1-methyl-6H-pyrrolo[2,3-e][1,2,4]triazolo[4,3-a]pyridine-7-carbonitrile Trifluoroacetate Salt] |
| ≥ 7.00 | ≥ 7.00 | Cc1cc2c(cc(NCC3CC3)c3nnc(C)n32)n1Cc1ccccc1 [Example 228, 6-Benzyl-N-(cyclopropylmethyl)-1,7-dimethyl-6H-pyrrolo[2,3-e][1,2,4]triazolo[4,3-a]pyridin-4-amine] |
| ≥ 7.00 | ≥ 7.00 | CNC(=O)Nc1cc2c(cc(C)n2Cc2ccccc2)n2c(C)nnc12 [Example 229, 1-(6-Benzyl-1,7-dimethyl-6H-pyrrolo[2,3-e][1,2,4]triazolo[4,3-a]pyridin-4-yl)-3-methylurea] |
| ≥ 7.00 | ≥ 7.00 | Cc1cc2c(cc(NC(N)=O)c3nnc(C)n32)n1Cc1cccc(C(F)(F)F)c1 [Example 230, 1-(1,7-Dimethyl-6-(3-(trifluoromethyl)benzyl)-6H-pyrrolo[2,3-e][1,2,4]triazolo[4,3-a]pyridin-4-yl)urea] |
